Series [1] in a line: Solubility in water. The format is physicochemical.
Series [2] has as its target 2-acylglycerol O-acyltransferase 2 (Mus musculus, UniProt Q80W94). In words: Inhibition of mouse recombinant MGAT2 assessed as reduction in enzyme-mediated deacylation of oleoyl-CoA incubated for 20 mins by CPM dye based fluorescence assay.
Series [3] addresses 2-acylglycerol O-acyltransferase 2 (Homo sapiens, UniProt Q3SYC2). In words: Inhibition of human recombinant MGAT2 assessed as reduction in enzyme-mediated deacylation of oleoyl-CoA incubated for 20 mins by CPM dye based fluorescence assay.
A short description of series [4]: Drug metabolism in mouse liver microsomes incubated for 15 mins. The series is classed as ADME. The note with it: read-out: Drug metabolism. For orientation: Microsomes from liver hold many membrane-bound enzymes, among them those of drug oxidation.
Series [5] in a line: Drug metabolism in human liver microsomes incubated for 15 mins. The format is ADME. The note with it: read-out: Drug metabolism.
A short description of series [6]: Solubility in FeSSIF solution at pH 5.0. The format is physicochemical.
The nature of series [7]: Cmax in mouse at 100 mg/kg, po. The series is classed as ADME, organism-based. Also on record: dose 100 mg/kg, route oral. The note with it: in vivo.
The nature of series [8]: AUC (0 to 4 hrs) in mouse at 100 mg/kg, po. The series is classed as ADME, organism-based. Also on record: dose 100 mg/kg, time < 4 hr, route oral. The settings on record: in vivo.
Another series deals with Mus musculus. In words: Inhibition of fat absorption in mouse assessed as reduction in plasma triglyceride AUC (0 to 4 hrs) level at 100 mg/kg, po by oral lipid tolerance test. The series is classed as functional.

The text below walks through data of ChEMBL document CHEMBL3603768, “Identification of 2-[2-(4-tert-butylphenyl)ethyl]-N-(4-fluorophenyl)-1,2,3,4-tetrahydroisoquinoline-6-sulfonamide (29) as an orally available MGAT2 inhibitor” (Bioorg Med Chem, 2015).

SMILES strings stand for the structures. Converted amounts (≈) assume the structure as drawn.

2-acylglycerol O-acyltransferase 2 (Homo sapiens, UniProt Q3SYC2), sequence (Q3SYC2 whole entry): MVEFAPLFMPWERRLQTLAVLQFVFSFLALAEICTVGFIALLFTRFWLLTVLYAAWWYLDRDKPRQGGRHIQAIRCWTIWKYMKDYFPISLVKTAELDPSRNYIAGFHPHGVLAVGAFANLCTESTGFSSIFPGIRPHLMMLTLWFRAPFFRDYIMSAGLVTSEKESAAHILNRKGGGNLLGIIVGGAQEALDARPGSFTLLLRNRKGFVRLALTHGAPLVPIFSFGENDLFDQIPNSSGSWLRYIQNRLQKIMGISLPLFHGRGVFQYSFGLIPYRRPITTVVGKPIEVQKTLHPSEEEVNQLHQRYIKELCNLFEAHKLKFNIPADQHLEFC
2-acylglycerol O-acyltransferase 2 (Mus musculus, UniProt Q80W94), sequence (Q80W94 whole entry): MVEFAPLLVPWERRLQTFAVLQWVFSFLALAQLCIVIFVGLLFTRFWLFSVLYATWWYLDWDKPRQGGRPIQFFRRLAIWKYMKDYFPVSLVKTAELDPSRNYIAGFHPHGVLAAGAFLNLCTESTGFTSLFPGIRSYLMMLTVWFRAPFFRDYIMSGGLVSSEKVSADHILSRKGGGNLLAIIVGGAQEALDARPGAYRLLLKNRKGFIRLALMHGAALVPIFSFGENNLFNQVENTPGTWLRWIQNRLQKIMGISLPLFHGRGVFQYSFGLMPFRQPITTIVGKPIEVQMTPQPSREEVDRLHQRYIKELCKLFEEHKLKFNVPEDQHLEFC

Usually solubility stands for the dissolved amount per volume that the medium holds. Read a high solubility as much dissolved substance. A word on the IC50: it is the point on the concentration scale where inhibition reaches its midpoint. `CC(C)(C)c1ccc(NC(=O)N2Cc3ccc(S(=O)(=O)Nc4ccc(F)cc4)cc3C2)cc1` showed a solubility in series [1] of under 0.07 µg/mL. Besides, the IC50 was 1310 nM in series [2] and 594 nM in series [3]. For the same molecule, the metabolised at 0.25 h in [4] worked out at 70.9%; in series [5], 12.3%.
With `CC(C)(C)c1ccc(NC(=O)N2Cc3ccc(S(=O)(=O)Nc4ccc(F)cc4F)cc3C2)cc1`, in [3], the IC50 amounted to 685 nM.
Take `CC(C)(C)c1ccc(NC(=O)N2Cc3ccc(S(=O)(=O)Nc4ccc(F)cc4Cl)cc3C2)cc1`: the IC50 in [3] was 1110 nM.
As to `CCc1cc(F)ccc1NS(=O)(=O)c1ccc2c(c1)CN(C(=O)Nc1ccc(C(C)(C)C)cc1)C2`, in series [3], the IC50 is 2490 nM.
By Cmax is commonly meant the maximum level reached in the sampled fluid or tissue. One may read the AUC(0-t) as the area under the concentration-time curve up to a stated or last time point. A higher AUC(0-t) goes with more exposure. Regarding `COc1cc(F)ccc1NS(=O)(=O)c1ccc2c(c1)CN(C(=O)Nc1ccc(C(C)(C)C)cc1)C2`, the solubility was determined as 0.607 µg/mL (≈ 1.22 µM) in [1] and 28.3 µg/mL (≈ 56.9 µM) in series [6]. The molecule further gave a Cmax in series [7] of 94.3 ng/mL. The figures for the metabolised at 0.25 h in [4] and in [5] were 60.6% and 43.1%, respectively. The molecule also came in with an AUC(0-t) at 4 h in [8] of 134 ng·h/mL.
Take `CCOc1cc(F)ccc1NS(=O)(=O)c1ccc2c(c1)CN(C(=O)Nc1ccc(C(C)(C)C)cc1)C2`: in series [3], the IC50 came out at 733 nM.
In the case of `CCCOc1cc(F)ccc1NS(=O)(=O)c1ccc2c(c1)CN(C(=O)Nc1ccc(C(C)(C)C)cc1)C2`, in series [3], the concentration for half-maximal inhibition (IC50) is 2300 nM.
Same read-out and setting: the value for `COc1ccc(NS(=O)(=O)c2ccc3c(c2)CN(C(=O)Nc2ccc(C(C)(C)C)cc2)C3)c(OC)c1` was 3160 nM.
With `COc1ccc(NS(=O)(=O)c2ccc3c(c2)CN(C(=O)Nc2ccc(C(C)(C)C)cc2)C3)c(F)c1`, the solubility in [1] was under 0.06 µg/mL; in series [6], 0.783 µg/mL (≈ 1.57 µM). Moreover, the figures for the metabolised at 0.25 h in series [4] and in series [5] were 51.1% and 20.6%, respectively.
In the case of `CCOc1ccc(NS(=O)(=O)c2ccc3c(c2)CN(C(=O)Nc2ccc(C(C)(C)C)cc2)C3)c(F)c1`, the half-maximal inhibitory concentration (IC50) in series [3] came to 5200 nM.
On to `CCCOc1ccc(NS(=O)(=O)c2ccc3c(c2)CN(C(=O)Nc2ccc(C(C)(C)C)cc2)C3)c(F)c1`, for which, in [3], the IC50 stood at 1980 nM.
For `CCCCOc1ccc(NS(=O)(=O)c2ccc3c(c2)CN(C(=O)Nc2ccc(C(C)(C)C)cc2)C3)c(F)c1`, in series [3], the IC50 was found to be 547 nM.
`CCCCCOc1ccc(NS(=O)(=O)c2ccc3c(c2)CN(C(=O)Nc2ccc(C(C)(C)C)cc2)C3)c(F)c1`: the solubility in series [1] was under 0.06 µg/mL; in [6], 10.2 µg/mL (≈ 18.4 µM). The metabolised at 0.25 h in [4] stood at 12.6%; in series [5] it was 0.1%.
`CC(C)(C)c1ccc(CC(=O)N2Cc3ccc(S(=O)(=O)Nc4ccc(F)cc4)cc3C2)cc1`: the solubility in [1] was under 0.11 µg/mL. In addition, the IC50 in series [3] came to 8070 nM.
In [1], `CC(C)(C)c1ccc(CCN2Cc3ccc(S(=O)(=O)Nc4ccc(F)cc4)cc3C2)cc1` showed a solubility of 270 µg/mL (≈ 597 µM). For the same molecule, in series [3], the IC50 was determined as 2120 nM.
`CC(C)(C)c1ccc(CCN2CCc3ccc(S(=O)(=O)Nc4ccc(F)cc4)cc3C2)cc1`: in series [3], the IC50 is 3060 nM.
As a reminder, the inhibition in vivo is the change of the read-out against control, counted positive when it falls. Regarding `CC(C)(C)c1ccc(CCN2CCc3cc(S(=O)(=O)Nc4ccc(F)cc4)ccc3C2)cc1`, the values for the solubility in series [1] and in [6] were 641 µg/mL (≈ 1370 µM) and 385 µg/mL (≈ 825 µM), respectively. Further, the IC50 in [2] stood at 1170 nM; in [3], 1520 nM. This molecule had a peak concentration (Cmax) in series [7] of 1200 ng/mL. Moreover, the metabolised at 0.25 h turned out to be 47.8% in series [4] and 14.6% in series [5]. Besides, the inhibition in vivo at 100 mg/kg in the series with Mus musculus was determined as 57%. In addition, the exposure AUC(0-t) at 4 h in series [8] is 1810 ng·h/mL.
